The values that follow come from PMC9661477, “New Dual P-Glycoprotein (P-gp) and Human Carbonic Anhydrase XII (hCA XII) Inhibitors as Multidrug Resistance (MDR) Reversers in Cancer Cells” (Journal of Medicinal Chemistry, 2022).

Like-named read-outs stand apart in the source and are kept apart here.

One assay deals with hCA II (Homo sapiens, UniProt P00918). The assay can be described thus: stopped-flow CO2 hydrase assay, hCA II. The conditions noted are these: read-out: Ki hCA II; stopped-flow technique, mean from three different assays.
The next assay concerns the target hCA IX (Homo sapiens, UniProt Q16790). Description: stopped-flow CO2 hydrase assay, hCA IX.
A further assay concerns the target hCA I (Homo sapiens, UniProt P00915). Description: stopped-flow CO2 hydrase assay, hCA I. The note with it: read-out: Ki hCA I; stopped-flow technique, mean from three different assays.
Setting [1] is: read-out: Ki hCA IX, stopped-flow technique, mean from three different assays.

Sequence of hCA I (P00915 whole entry): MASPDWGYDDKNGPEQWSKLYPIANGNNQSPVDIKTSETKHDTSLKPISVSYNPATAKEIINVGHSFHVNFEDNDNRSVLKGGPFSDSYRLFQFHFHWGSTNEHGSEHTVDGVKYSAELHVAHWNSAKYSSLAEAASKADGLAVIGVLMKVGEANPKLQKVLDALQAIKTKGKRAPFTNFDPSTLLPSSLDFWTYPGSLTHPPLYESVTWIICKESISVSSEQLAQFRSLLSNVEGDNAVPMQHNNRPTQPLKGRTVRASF
Excerpt for hCA II: (§1) An SX.18MV-R Applied Photophysics (Oxford, U.K.) stopped-flow instrument has been used to assay the catalytic/inhibition of various CA isozymes.[38] […] The inhibition constants were obtained by nonlinear least-squares methods using the Cheng–Prusoff equation, as reported earlier,[32] and represent the mean from at least three different determinations.
Excerpt for hCA IX: as §1

In the case of `COc1cc(/C=C/C(=O)OCCCCCN(CCCOC(=O)/C=C/c2cc(OC)c(OC)c(OC)c2)CCCOc2ccc3ccc(=O)oc3c2)cc(OC)c1OC` [Compound 1, (E)-5-((3-((2-Oxo-2H-chromen-7-yl)oxy)propyl)(3-(((E)-3-(3,4,5-trimethoxyphenyl)acryloyl)oxy)propyl)amino)pentyl 3-(3,4,5-Trimethoxyphenyl)acrylate], the values for the Ki on hCA II, on hCA IX (setting [1]) and at hCA I were over 10000 nM, 39.5 nM and over 10000 nM, respectively.
`COc1cc(/C=C/C(=O)OCCCCCN(CCCOC(=O)c2cc(OC)c(OC)c(OC)c2)CCCOc2ccc3ccc(=O)oc3c2)cc(OC)c1OC` [Compound 2, (E)-3-((3-((2-Oxo-2H-chromen-7-yl)oxy)propyl)(5-((3-(3,4,5-trimethoxyphenyl)acryloyl)oxy)pentyl)amino)propyl 3,4,5-Trimethoxybenzoate]: the Ki is over 10000 nM at hCA II, 24.2 nM at hCA IX (setting [1]) and over 10000 nM on hCA I.
With `COc1cc(/C=C/C(=O)OCCCCCN(CCCOC(=O)c2c3ccccc3cc3ccccc23)CCCOc2ccc3ccc(=O)oc3c2)cc(OC)c1OC` [Compound 3, (E)-3-((3-((2-Oxo-2H-chromen-7-yl)oxy)propyl)(5-((3-(3,4,5-trimethoxyphenyl)acryloyl)oxy)pentyl)amino)propyl Anthracene-9-carboxylate], the Ki was over 10000 nM on hCA II, under 10 nM at hCA IX, 7.9 nM on hCA IX (setting [1]) and over 10000 nM on hCA I.
Consider `COc1cc(/C=C/C(=O)OCCCN(CCCCCOC(=O)c2cc(OC)c(OC)c(OC)c2)CCCOc2ccc3ccc(=O)oc3c2)cc(OC)c1OC` [Compound 4, (E)-5-((3-((2-Oxo-2H-chromen-7-yl)oxy)propyl)(3-((3-(3,4,5-trimethoxyphenyl)acryloyl)oxy)propyl)amino)pentyl 3,4,5-Trimethoxybenzoate], for which the Ki at hCA II was over 10000 nM; on hCA IX (setting [1]), 58.8 nM; at hCA I it was over 10000 nM.
`COc1cc(C(=O)OCCCCCN(CCCOC(=O)c2c3ccccc3cc3ccccc23)CCCOc2ccc3ccc(=O)oc3c2)cc(OC)c1OC` [Compound 6, 3-((3-((2-Oxo-2H-chromen-7-yl)oxy)propyl)(5-((3,4,5-trimethoxybenzoyl)oxy)pentyl)amino)propyl Anthracene-9-carboxylate]: the Ki at hCA II is over 10000 nM; at hCA IX (setting [1]), 36.2 nM; at hCA I it was over 10000 nM.
`COc1cc(/C=C/C(=O)OCCCN(CCCCCOC(=O)c2c3ccccc3cc3ccccc23)CCCOc2ccc3ccc(=O)oc3c2)cc(OC)c1OC` [Compound 7, (E)-5-((3-((2-Oxo-2H-chromen-7-yl)oxy)propyl)(3-((3-(3,4,5-trimethoxyphenyl)acryloyl)oxy)propyl)amino)pentyl Anthracene-9-carboxylate]: the Ki on hCA II was over 10000 nM; at hCA IX (setting [1]) it was 104 nM; on hCA I, over 10000 nM.
For `COc1cc(C(=O)OCCCN(CCCCCOC(=O)c2c3ccccc3cc3ccccc23)CCCOc2ccc3ccc(=O)oc3c2)cc(OC)c1OC` [Compound 8, 5-((3-((2-Oxo-2H-chromen-7-yl)oxy)propyl)(3-((3,4,5-trimethoxybenzoyl)oxy)propyl)amino)pentyl Anthracene-9-carboxylate], the Ki on hCA II is over 10000 nM; on hCA IX (setting [1]), 93.7 nM; on hCA I, over 10000 nM.
As to `O=C(OCCCCCN(CCCOC(=O)c1c2ccccc2cc2ccccc12)CCCOc1ccc2ccc(=O)oc2c1)c1c2ccccc2cc2ccccc12` [Compound 9, 3-((5-((Anthracene-9-carbonyl)oxy)pentyl)(3-((2-oxo-2H-chromen-7-yl)oxy)propyl)amino)propyl Anthracene-9-carboxylate], the inhibition constant Ki on hCA II was over 10000 nM; at hCA IX (setting [1]), 137 nM; at hCA I, over 10000 nM.
Consider `COc1cc(/C=C/C(=O)OCCCCCCN(CCCOC(=O)/C=C/c2cc(OC)c(OC)c(OC)c2)CCCOc2ccc3ccc(=O)oc3c2)cc(OC)c1OC` [Compound 10, (E)-6-((3-((2-Oxo-2H-chromen-7-yl)oxy)propyl)(3-(((E)-3-(3,4,5-trimethoxyphenyl)acryloyl)oxy)propyl)amino)hexyl 3-(3,4,5-Trimethoxyphenyl)acrylate], for which the Ki on hCA II is over 10000 nM; at hCA IX, under 10 nM; on hCA IX (setting [1]), 8.1 nM; at hCA I, over 10000 nM.
In the case of `COc1cc(/C=C/C(=O)OCCCCCCN(CCCOC(=O)c2cc(OC)c(OC)c(OC)c2)CCCOc2ccc3ccc(=O)oc3c2)cc(OC)c1OC` [Compound 11, (E)-3-((3-((2-Oxo-2H-chromen-7-yl)oxy)propyl)(6-((3-(3,4,5-trimethoxyphenyl)acryloyl)oxy)hexyl)amino)propyl 3,4,5-Trimethoxybenzoate], the Ki at hCA II was over 10000 nM; at hCA IX (setting [1]) it was 50.2 nM; at hCA I, over 10000 nM.
Take `COc1cc(/C=C/C(=O)OCCCCCCN(CCCOC(=O)c2c3ccccc3cc3ccccc23)CCCOc2ccc3ccc(=O)oc3c2)cc(OC)c1OC` [Compound 12, (E)-3-((3-((2-Oxo-2H-chromen-7-yl)oxy)propyl)(6-((3-(3,4,5-trimethoxyphenyl)acryloyl)oxy)hexyl)amino)propyl Anthracene-9-carboxylate]: the results for the Ki on hCA II, at hCA IX (setting [1]) and at hCA I were over 10000 nM, 26.8 nM and over 10000 nM, respectively.
Turning to `COc1cc(/C=C/C(=O)OCCCN(CCCCCCOC(=O)c2cc(OC)c(OC)c(OC)c2)CCCOc2ccc3ccc(=O)oc3c2)cc(OC)c1OC` [Compound 13, (E)-6-((3-((2-Oxo-2H-chromen-7-yl)oxy)propyl)(3-((3-(3,4,5-trimethoxyphenyl)acryloyl)oxy)propyl)amino)hexyl 3,4,5-Trimethoxybenzoate], the values for the Ki on hCA II, on hCA IX (setting [1]) and on hCA I were over 10000 nM, 71.7 nM and over 10000 nM, respectively.
In the case of `COc1cc(C(=O)OCCCCCCN(CCCOC(=O)c2c3ccccc3cc3ccccc23)CCCOc2ccc3ccc(=O)oc3c2)cc(OC)c1OC` [Compound 15, 3-((3-((2-Oxo-2H-chromen-7-yl)oxy)propyl)(6-((3,4,5-trimethoxybenzoyl)oxy)hexyl)amino)propyl Anthracene-9-carboxylate], the results for the Ki at hCA II, at hCA IX (setting [1]) and on hCA I were over 10000 nM, 54.1 nM and over 10000 nM, respectively.
In the case of `COc1cc(/C=C/C(=O)OCCCN(CCCCCCOC(=O)c2c3ccccc3cc3ccccc23)CCCOc2ccc3ccc(=O)oc3c2)cc(OC)c1OC` [Compound 16, (E)-6-((3-((2-Oxo-2H-chromen-7-yl)oxy)propyl)(3-((3-(3,4,5-trimethoxyphenyl)acryloyl)oxy)propyl)amino)hexyl Anthracene-9-carboxylate], the results for the Ki on hCA II, at hCA IX (setting [1]) and on hCA I were over 10000 nM, 148 nM and over 10000 nM, respectively.
For `COc1cc(C(=O)OCCCN(CCCCCCOC(=O)c2c3ccccc3cc3ccccc23)CCCOc2ccc3ccc(=O)oc3c2)cc(OC)c1OC` [Compound 17, 6-((3-((2-Oxo-2H-chromen-7-yl)oxy)propyl)(3-((3,4,5-trimethoxybenzoyl)oxy)propyl)amino)hexyl Anthracene-9-carboxylate], the Ki on hCA II is over 10000 nM; at hCA IX (setting [1]), 123 nM; on hCA I, over 10000 nM.
With `O=C(OCCCCCCN(CCCOC(=O)c1c2ccccc2cc2ccccc12)CCCOc1ccc2ccc(=O)oc2c1)c1c2ccccc2cc2ccccc12` [Compound 18, 3-((6-((Anthracene-9-carbonyl)oxy)hexyl)(3-((2-oxo-2H-chromen-7-yl)oxy)propyl)amino)propyl Anthracene-9-carboxylate], the Ki at hCA II was over 10000 nM; on hCA IX (setting [1]), 166 nM; at hCA I, over 10000 nM.
For the compound `COc1cc(/C=C/C(=O)OCCCCCCCN(CCCOC(=O)/C=C/c2cc(OC)c(OC)c(OC)c2)CCCOc2ccc3ccc(=O)oc3c2)cc(OC)c1OC` [Compound 19, (E)-7-((3-((2-Oxo-2H-chromen-7-yl)oxy)propyl)(3-(((E)-3-(3,4,5-trimethoxyphenyl)acryloyl)oxy)propyl)amino)heptyl 3-(3,4,5-Trimethoxyphenyl)acrylate], the Ki was over 10000 nM on hCA II, 27.8 nM on hCA IX (setting [1]) and over 10000 nM at hCA I.
For `COc1cc(/C=C/C(=O)OCCCCCCCN(CCCOC(=O)c2cc(OC)c(OC)c(OC)c2)CCCOc2ccc3ccc(=O)oc3c2)cc(OC)c1OC` [Compound 20, (E)-3-((3-((2-Oxo-2H-chromen-7-yl)oxy)propyl)(7-((3-(3,4,5-trimethoxyphenyl)acryloyl)oxy)heptyl)amino)propyl 3,4,5-Trimethoxybenzoate], the Ki on hCA II is over 10000 nM; at hCA IX, under 10 nM; at hCA IX (setting [1]) it was 5.2 nM; on hCA I, over 10000 nM.
For `COc1cc(/C=C/C(=O)OCCCCCCCN(CCCOC(=O)c2c3ccccc3cc3ccccc23)CCCOc2ccc3ccc(=O)oc3c2)cc(OC)c1OC` [Compound 21, (E)-3-((3-((2-Oxo-2H-chromen-7-yl)oxy)propyl)(7-((3-(3,4,5-trimethoxyphenyl)acryloyl)oxy)heptyl)amino)propyl Anthracene-9-carboxylate], the results for the Ki at hCA II, on hCA IX (setting [1]) and at hCA I were over 10000 nM, 14.2 nM and over 10000 nM, respectively.
Consider `COc1cc(/C=C/C(=O)OCCCN(CCCCCCCOC(=O)c2cc(OC)c(OC)c(OC)c2)CCCOc2ccc3ccc(=O)oc3c2)cc(OC)c1OC` [Compound 22, (E)-7-((3-((2-Oxo-2H-chromen-7-yl)oxy)propyl)(3-((3-(3,4,5-trimethoxyphenyl)acryloyl)oxy)propyl)amino)heptyl 3,4,5-Trimethoxybenzoate], for which the figures for the Ki at hCA II, on hCA IX (setting [1]) and at hCA I were over 10000 nM, 43.8 nM and over 10000 nM, respectively.
As for `COc1cc(C(=O)OCCCCCCCN(CCCOC(=O)c2cc(OC)c(OC)c(OC)c2)CCCOc2ccc3ccc(=O)oc3c2)cc(OC)c1OC` [Compound 23, 7-((3-((2-Oxo-2H-chromen-7-yl)oxy)propyl)(3-((3,4,5-trimethoxybenzoyl)oxy)propyl)amino)heptyl 3,4,5-Trimethoxybenzoate], the results for the Ki at hCA II, at hCA IX (setting [1]) and on hCA I were over 10000 nM, 18.3 nM and over 10000 nM, respectively.
